# Assay results published in paper PMC4076210, “Discovery of Novel AKT Inhibitors with Enhanced Anti-Tumor Effects in Combination with the MEK Inhibitor” (PLoS ONE, 2014).
# Like-named read-outs stand apart in the source and are kept apart here.
# Tests used:
# Rsk1(h) = biological target: T1, Rsk1(h) (Homo sapiens, UniProt Q15418); assay: Kinase panel; format: biochemical
# T1 construct: purchased Millipore KinaseProfiler
# Tie2(Y897S)(h) = biological target: T2, Tie2(Y897S)(h) (Homo sapiens, UniProt Q02763, Y897S); assay: Kinase panel; format: biochemical
# T2 construct: purchased Millipore KinaseProfiler
# CK1δ(h) = biological target: T3, CK1δ(h) (Homo sapiens, UniProt P48730); assay: Kinase panel; format: biochemical
# T3 construct: purchased Millipore KinaseProfiler
# SAPK2a(T106M)(h) = biological target: T4, SAPK2a(T106M)(h) (Homo sapiens, UniProt Q16539, T106M); assay: Kinase panel; format: biochemical
# T4 construct: purchased Millipore KinaseProfiler
# BTK(h) = biological target: T5, BTK(h) (Homo sapiens, UniProt Q06187); assay: Kinase panel; format: biochemical
# T5 construct: purchased Millipore KinaseProfiler
# cKit(D816H)(h) = biological target: T6, cKit(D816H)(h) (Homo sapiens, UniProt P10721, D816H); assay: Kinase panel; format: biochemical
# T6 construct: purchased Millipore KinaseProfiler
# Snk(h) = biological target: T7, Snk(h) (Homo sapiens, UniProt Q9NYY3); assay: Kinase panel; format: biochemical
# T7 construct: purchased Millipore KinaseProfiler
# Txk(h) = biological target: T8, Txk(h) (Homo sapiens, UniProt P42681); assay: Kinase panel; format: biochemical
# T8 construct: purchased Millipore KinaseProfiler
# T8 sequence (P42681 1-527): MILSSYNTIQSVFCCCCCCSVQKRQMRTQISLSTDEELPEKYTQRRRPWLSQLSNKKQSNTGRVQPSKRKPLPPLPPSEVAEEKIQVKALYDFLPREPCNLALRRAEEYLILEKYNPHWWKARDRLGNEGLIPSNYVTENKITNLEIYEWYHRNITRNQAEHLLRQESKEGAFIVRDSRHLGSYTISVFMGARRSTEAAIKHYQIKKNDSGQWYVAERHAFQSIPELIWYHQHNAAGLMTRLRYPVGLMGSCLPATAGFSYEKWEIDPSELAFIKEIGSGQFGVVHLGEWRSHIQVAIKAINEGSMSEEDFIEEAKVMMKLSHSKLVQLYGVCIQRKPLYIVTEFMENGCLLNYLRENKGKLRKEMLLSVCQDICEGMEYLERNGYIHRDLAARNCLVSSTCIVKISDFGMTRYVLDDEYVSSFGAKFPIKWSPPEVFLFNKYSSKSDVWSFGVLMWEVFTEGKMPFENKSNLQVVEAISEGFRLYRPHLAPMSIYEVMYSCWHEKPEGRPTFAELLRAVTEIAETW
# CHK1(h) = biological target: T9, CHK1(h) (Homo sapiens, UniProt O14757); assay: Kinase panel; format: biochemical
# T9 construct: purchased Millipore KinaseProfiler
# T9 sequence (O14757 1-476): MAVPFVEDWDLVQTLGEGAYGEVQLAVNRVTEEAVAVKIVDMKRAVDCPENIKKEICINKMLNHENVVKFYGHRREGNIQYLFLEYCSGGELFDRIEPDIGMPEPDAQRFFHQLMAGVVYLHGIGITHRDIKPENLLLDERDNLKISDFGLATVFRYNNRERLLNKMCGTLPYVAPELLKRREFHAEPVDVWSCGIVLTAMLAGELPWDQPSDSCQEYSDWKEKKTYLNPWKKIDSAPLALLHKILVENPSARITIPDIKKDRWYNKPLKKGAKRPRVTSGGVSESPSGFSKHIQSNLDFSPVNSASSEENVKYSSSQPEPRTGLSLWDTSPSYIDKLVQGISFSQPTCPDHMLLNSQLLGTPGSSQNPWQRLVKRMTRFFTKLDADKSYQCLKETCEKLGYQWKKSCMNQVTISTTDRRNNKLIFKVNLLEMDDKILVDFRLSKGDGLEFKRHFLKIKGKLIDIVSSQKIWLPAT
# MKK6(h) = biological target: T10, MKK6(h) (Homo sapiens, UniProt P52564); assay: Kinase panel; format: biochemical
# T10 construct: purchased Millipore KinaseProfiler
# T10 sequence (P52564 1-334): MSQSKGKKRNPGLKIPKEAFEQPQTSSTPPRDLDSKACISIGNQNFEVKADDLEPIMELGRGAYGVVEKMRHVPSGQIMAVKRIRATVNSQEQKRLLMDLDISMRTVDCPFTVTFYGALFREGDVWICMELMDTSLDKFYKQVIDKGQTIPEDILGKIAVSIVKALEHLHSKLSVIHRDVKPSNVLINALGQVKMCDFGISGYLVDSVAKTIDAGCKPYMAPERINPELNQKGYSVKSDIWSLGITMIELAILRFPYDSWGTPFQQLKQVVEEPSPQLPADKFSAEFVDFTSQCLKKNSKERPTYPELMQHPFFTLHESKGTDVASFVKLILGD
# pPRAS40 in BT474 = assay: phospho-PRAS40 ELISA; format: cell-based; conditions: Homo sapiens, BT-474; BT474, mean ± std dev
# Experimental: (§1) ELISA plates were prepared by coating with anti-GSK3β antibody (R&D Systems), and blocked with 5% Milk/0.1% Tween-20. Cells were seeded at 25,000 cells/96-well overnight and treated with DMSO or various concentrations of drug for 1 h. Cells were lysed in 20 mM Tris-HCl (pH 8.0), 137 mM NaCl, 2 mM EDTA, 10% glycerol and 1% Triton X-100 and lysates transferred to ELISA plates and incubated overnight. The plates were washed and incubated with rabbit anti-phospho-GSK3β (Ser9) antibody (R&D Systems) for 1 h. After washing, plates were developed using HRP-linked anti-rabbit IgG, and 3,3′,5,5′-tetramethylbenzidine as substrate. Absorption was measured in a microplate spectrophotometer at 450 nm. The phospho-PRAS40 ELISA followed similar methodology as above with the exception of using a commercially available PRAS40 (pThr246) kit (Biosource) and following manufacturers' instructions for the ELISA analysis.
# pPRAS40 in LNCaP = assay: phospho-PRAS40 ELISA; format: cell-based; conditions: Homo sapiens, mean ± std dev
# Experimental: as §1
# DAPK2(h) = biological target: T11, DAPK2(h) (Homo sapiens, UniProt Q9UIK4); assay: Kinase panel; format: biochemical
# T11 construct: purchased Millipore KinaseProfiler
# JNK1α1(h) = biological target: T12, JNK1α1(h) (Homo sapiens, UniProt P45983); assay: Kinase panel; format: biochemical
# T12 construct: purchased Millipore KinaseProfiler
# EGFR(T790M,L858R)(h) = biological target: T13, EGFR(T790M,L858R)(h) (Homo sapiens, UniProt P00533, L858R/T790M); assay: Kinase panel; format: biochemical
# T13 construct: purchased Millipore KinaseProfiler
# CDK2/cyclinA(h) = biological target: T14, CDK2/cyclinA(h) (Homo sapiens, UniProt P24941); assay: Kinase panel; format: biochemical
# T14 construct: purchased Millipore KinaseProfiler
# T12 sequence (P45983 1-384 isoform P45983-2): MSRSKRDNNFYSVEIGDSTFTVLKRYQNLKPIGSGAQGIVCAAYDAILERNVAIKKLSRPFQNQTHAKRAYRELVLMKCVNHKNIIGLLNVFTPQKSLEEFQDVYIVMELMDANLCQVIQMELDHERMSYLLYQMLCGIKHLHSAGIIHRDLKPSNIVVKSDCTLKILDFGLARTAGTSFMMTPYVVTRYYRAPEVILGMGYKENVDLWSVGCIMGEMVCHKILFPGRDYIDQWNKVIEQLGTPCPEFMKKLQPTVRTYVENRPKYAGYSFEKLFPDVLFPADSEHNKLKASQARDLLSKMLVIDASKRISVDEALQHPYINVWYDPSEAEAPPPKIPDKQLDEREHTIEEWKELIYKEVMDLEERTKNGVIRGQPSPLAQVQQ
# T13 sequence (P00533 25-1210 T790M/L858R): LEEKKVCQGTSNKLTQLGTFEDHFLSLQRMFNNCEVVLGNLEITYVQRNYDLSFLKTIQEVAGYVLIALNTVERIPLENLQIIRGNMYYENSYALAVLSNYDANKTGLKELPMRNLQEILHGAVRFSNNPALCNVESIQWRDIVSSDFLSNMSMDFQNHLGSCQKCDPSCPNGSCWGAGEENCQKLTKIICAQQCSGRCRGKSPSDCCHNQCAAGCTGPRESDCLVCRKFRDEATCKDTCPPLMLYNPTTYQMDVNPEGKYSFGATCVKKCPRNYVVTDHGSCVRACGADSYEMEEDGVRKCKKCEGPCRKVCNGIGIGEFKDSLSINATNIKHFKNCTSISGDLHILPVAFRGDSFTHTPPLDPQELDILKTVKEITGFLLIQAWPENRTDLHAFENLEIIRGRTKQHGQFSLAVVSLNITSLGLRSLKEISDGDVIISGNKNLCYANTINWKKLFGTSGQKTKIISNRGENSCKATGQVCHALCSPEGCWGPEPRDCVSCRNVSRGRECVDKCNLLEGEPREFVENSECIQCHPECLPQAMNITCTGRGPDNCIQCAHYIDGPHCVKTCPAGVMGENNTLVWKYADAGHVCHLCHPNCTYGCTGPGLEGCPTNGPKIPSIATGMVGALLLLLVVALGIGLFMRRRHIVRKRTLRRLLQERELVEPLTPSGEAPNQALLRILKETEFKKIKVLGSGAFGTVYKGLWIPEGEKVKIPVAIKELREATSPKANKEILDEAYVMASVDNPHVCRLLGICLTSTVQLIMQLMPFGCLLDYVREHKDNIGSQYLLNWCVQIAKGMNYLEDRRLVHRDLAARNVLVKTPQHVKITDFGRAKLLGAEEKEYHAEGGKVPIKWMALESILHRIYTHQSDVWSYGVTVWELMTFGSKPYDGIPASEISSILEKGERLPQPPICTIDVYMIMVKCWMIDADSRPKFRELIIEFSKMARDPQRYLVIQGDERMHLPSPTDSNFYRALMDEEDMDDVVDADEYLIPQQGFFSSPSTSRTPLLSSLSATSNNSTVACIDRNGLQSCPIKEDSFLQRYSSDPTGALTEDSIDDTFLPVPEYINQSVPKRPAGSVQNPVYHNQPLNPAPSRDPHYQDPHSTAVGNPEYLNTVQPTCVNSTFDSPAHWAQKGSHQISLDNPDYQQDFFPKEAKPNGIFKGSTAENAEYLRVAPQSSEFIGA
# T1 sequence (Q15418 whole entry): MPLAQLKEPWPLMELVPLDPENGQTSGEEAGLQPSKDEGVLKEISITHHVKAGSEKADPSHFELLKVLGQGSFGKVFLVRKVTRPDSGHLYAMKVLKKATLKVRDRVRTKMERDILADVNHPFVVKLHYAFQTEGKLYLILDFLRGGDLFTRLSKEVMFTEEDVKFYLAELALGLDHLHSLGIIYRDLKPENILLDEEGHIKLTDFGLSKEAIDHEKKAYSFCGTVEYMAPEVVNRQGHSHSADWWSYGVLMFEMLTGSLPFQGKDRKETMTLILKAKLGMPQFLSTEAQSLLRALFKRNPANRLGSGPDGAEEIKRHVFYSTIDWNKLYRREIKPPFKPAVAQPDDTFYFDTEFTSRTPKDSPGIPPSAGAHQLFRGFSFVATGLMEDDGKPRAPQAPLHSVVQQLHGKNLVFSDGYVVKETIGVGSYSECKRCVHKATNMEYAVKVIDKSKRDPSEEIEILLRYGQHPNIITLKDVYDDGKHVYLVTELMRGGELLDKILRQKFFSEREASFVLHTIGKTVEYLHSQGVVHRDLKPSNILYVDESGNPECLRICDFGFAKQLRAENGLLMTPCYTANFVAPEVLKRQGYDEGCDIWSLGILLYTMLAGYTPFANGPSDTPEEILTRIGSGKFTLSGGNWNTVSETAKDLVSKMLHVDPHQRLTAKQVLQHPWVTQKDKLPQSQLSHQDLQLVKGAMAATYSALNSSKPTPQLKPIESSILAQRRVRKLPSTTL
# T6 sequence (P10721 26-976 D816H): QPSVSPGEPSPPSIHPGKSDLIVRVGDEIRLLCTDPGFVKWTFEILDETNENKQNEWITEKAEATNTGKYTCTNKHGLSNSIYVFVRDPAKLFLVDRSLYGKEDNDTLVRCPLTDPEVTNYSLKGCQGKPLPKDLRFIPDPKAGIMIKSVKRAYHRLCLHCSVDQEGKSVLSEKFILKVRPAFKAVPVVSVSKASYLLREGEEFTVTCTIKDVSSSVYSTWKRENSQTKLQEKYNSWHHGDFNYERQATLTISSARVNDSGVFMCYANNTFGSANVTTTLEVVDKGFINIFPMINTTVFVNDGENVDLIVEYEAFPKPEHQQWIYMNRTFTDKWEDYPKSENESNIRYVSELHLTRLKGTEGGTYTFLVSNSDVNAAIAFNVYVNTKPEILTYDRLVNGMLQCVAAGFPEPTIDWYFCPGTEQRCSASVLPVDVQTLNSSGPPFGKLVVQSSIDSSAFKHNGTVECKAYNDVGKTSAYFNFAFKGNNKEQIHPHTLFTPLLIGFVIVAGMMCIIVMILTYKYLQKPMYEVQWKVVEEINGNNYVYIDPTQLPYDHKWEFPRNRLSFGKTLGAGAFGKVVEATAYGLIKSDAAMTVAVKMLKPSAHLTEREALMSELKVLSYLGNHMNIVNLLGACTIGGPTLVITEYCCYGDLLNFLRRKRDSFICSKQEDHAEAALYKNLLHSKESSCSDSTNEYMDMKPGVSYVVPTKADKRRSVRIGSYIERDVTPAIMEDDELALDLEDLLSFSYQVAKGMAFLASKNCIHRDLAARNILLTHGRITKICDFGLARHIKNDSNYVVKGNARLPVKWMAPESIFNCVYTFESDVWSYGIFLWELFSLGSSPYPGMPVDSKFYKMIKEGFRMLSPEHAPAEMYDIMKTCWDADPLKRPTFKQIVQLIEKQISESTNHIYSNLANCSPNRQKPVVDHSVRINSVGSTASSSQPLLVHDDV
# T4 sequence (Q16539 whole entry T106M): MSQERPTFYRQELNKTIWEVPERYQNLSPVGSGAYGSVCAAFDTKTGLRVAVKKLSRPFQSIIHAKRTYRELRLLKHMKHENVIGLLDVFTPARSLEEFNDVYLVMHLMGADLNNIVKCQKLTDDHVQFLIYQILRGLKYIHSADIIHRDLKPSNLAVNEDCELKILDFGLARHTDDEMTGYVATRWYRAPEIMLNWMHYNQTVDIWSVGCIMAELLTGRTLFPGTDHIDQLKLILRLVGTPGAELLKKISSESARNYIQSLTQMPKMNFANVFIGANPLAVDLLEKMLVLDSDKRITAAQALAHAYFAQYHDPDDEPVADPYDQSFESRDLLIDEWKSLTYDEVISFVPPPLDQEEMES
# T11 sequence (Q9UIK4 whole entry): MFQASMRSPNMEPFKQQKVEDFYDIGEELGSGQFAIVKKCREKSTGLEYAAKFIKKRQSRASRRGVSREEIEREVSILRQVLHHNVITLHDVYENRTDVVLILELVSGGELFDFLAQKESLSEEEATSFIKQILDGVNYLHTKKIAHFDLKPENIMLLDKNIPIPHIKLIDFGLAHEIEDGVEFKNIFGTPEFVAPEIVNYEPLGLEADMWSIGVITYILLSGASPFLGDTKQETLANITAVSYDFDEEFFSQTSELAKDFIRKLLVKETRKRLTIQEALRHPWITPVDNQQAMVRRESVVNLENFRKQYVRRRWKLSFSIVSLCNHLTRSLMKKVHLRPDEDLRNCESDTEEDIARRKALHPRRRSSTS
# T5 sequence (Q06187 whole entry): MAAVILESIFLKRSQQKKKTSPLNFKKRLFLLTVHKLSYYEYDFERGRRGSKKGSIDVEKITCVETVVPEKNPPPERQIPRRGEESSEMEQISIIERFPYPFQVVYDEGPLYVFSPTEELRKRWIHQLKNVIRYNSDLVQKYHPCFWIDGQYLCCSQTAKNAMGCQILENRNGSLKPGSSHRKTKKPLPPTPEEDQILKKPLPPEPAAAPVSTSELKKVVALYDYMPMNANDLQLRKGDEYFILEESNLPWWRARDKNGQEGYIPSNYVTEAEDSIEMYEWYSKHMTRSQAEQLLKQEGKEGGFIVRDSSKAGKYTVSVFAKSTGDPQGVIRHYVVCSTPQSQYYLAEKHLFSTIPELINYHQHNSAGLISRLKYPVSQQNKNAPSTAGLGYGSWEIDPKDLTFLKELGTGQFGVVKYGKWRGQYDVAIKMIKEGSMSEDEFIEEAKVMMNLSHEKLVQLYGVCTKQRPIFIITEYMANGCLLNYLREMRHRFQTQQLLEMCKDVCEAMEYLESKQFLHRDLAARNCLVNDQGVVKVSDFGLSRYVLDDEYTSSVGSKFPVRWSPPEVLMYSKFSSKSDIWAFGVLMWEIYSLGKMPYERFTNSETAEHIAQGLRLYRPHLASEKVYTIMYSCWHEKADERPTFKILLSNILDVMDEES
structure (smiles),measurement,setting,value
Cn1ncc(Cl)c1-c1cc(C(=O)N[C@H](CN)Cc2cccc(F)c2)sc1Cl [GSK2110183],inhibition at 0.5 µM,Rsk1(h),49%
same,inhibition at 10 µM,Rsk1(h),89%
same,inhibition at 0.5 µM,Tie2(Y897S)(h),-5%
same,inhibition at 10 µM,Tie2(Y897S)(h),-4%
same,inhibition at 0.5 µM,CK1δ(h),-1%
same,inhibition at 10 µM,CK1δ(h),49%
same,inhibition at 0.5 µM,SAPK2a(T106M)(h),-5%
same,inhibition at 10 µM,SAPK2a(T106M)(h),-6%
same,inhibition at 0.5 µM,BTK(h),2%
same,inhibition at 10 µM,BTK(h),4%
same,inhibition at 0.5 µM,cKit(D816H)(h),-6%
same,inhibition at 10 µM,cKit(D816H)(h),-3%
same,inhibition at 0.5 µM,Snk(h),-8%
same,inhibition at 10 µM,Snk(h),18%
same,inhibition at 0.5 µM,Txk(h),-9%
same,inhibition at 10 µM,Txk(h),15%
same,inhibition at 0.5 µM,CHK1(h),13%
same,inhibition at 10 µM,CHK1(h),34%
same,inhibition at 0.5 µM,MKK6(h),6%
same,inhibition at 10 µM,MKK6(h),36%
same,IC50,pPRAS40 in BT474,121 ± 40 nM
same,IC50,pPRAS40 in LNCaP,104 ± 5 nM
same,inhibition at 0.5 µM,DAPK2(h),-1%
same,inhibition at 10 µM,DAPK2(h),37%
same,inhibition at 0.5 µM,JNK1α1(h),-2%
same,inhibition at 10 µM,JNK1α1(h),13%
same,inhibition at 0.5 µM,"EGFR(T790M,L858R)(h)",-32%
same,inhibition at 10 µM,"EGFR(T790M,L858R)(h)",-3%
same,inhibition at 0.5 µM,CDK2/cyclinA(h),-10%
same,inhibition at 10 µM,CDK2/cyclinA(h),1%
Cn1ncc(Cl)c1-c1cc(C(=O)N[C@H](CN)Cc2ccc(F)c(F)c2)oc1Cl [GSK2141795],inhibition at 0.5 µM,"Rsk1(h); 0.5 µM, read-out: % Inhibition",44%
same,inhibition at 10 µM,"Rsk1(h); 10 µM, read-out: % Inhibition",91%
same,inhibition at 0.5 µM,"Tie2(Y897S)(h); 0.5 µM, read-out: % Inhibition",-4%
same,inhibition at 10 µM,"Tie2(Y897S)(h); 10 µM, read-out: % Inhibition",2%
same,inhibition at 0.5 µM,"CK1δ(h); 0.5 µM, read-out: % Inhibition",-2%
same,inhibition at 10 µM,"CK1δ(h); 10 µM, read-out: % Inhibition",63%
same,inhibition at 0.5 µM,"SAPK2a(T106M)(h); 0.5 µM, read-out: % Inhibition",-15%
same,inhibition at 10 µM,"SAPK2a(T106M)(h); 10 µM, read-out: % Inhibition",-33%
same,inhibition at 0.5 µM,"BTK(h); 0.5 µM, read-out: % Inhibition",7%
same,inhibition at 10 µM,"BTK(h); 10 µM, read-out: % Inhibition",6%
same,inhibition at 0.5 µM,"cKit(D816H)(h); 0.5 µM, read-out: % Inhibition",-15%
same,inhibition at 10 µM,"cKit(D816H)(h); 10 µM, read-out: % Inhibition",43%
same,inhibition at 0.5 µM,"Snk(h); 0.5 µM, read-out: % Inhibition",-12%
same,inhibition at 10 µM,"Snk(h); 10 µM, read-out: % Inhibition",15%
same,inhibition at 0.5 µM,"Txk(h); 0.5 µM, read-out: % Inhibition",11%
same,inhibition at 10 µM,"Txk(h); 10 µM, read-out: % Inhibition",30%
same,inhibition at 0.5 µM,"CHK1(h); 0.5 µM, read-out: % Inhibition",-9%
same,inhibition at 10 µM,"CHK1(h); 10 µM, read-out: % Inhibition",21%
same,inhibition at 0.5 µM,"MKK6(h); 0.5 µM, read-out: % Inhibition",14%
same,inhibition at 10 µM,"MKK6(h); 10 µM, read-out: % Inhibition",66%
same,IC50,pPRAS40 in BT474,39 ± 0.5 nM
same,IC50,pPRAS40 in LNCaP,55 ± 2 nM
same,inhibition at 0.5 µM,"DAPK2(h); 0.5 µM, read-out: % Inhibition",-10%
same,inhibition at 10 µM,"DAPK2(h); 10 µM, read-out: % Inhibition",58%
same,inhibition at 0.5 µM,"JNK1α1(h); 0.5 µM, read-out: % Inhibition",-9%
same,inhibition at 10 µM,"JNK1α1(h); 10 µM, read-out: % Inhibition",-5%
same,inhibition at 0.5 µM,"EGFR(T790M,L858R)(h); 0.5 µM, read-out: % Inhibition",-7%
same,inhibition at 10 µM,"EGFR(T790M,L858R)(h); 10 µM, read-out: % Inhibition",18%
same,inhibition at 0.5 µM,"CDK2/cyclinA(h); 0.5 µM, read-out: % Inhibition",1%
same,inhibition at 10 µM,"CDK2/cyclinA(h); 10 µM, read-out: % Inhibition",20%
